Assay results as given in patent publication US8518635B2, “Regulation of protein activity by reversible acetylation” (The J. David Gladstone Institutes, priority 2006, dated 2013).
“Also recorded” adds a separate entry of the source.

Legend:
[1] = tested on: AceCS2; test: Acetyl-CoA synthetase activity of purified AceCS2; type: biochemical, human; conditions: hyperacetylated AceCS2 from nicotinamide-treated E. coli vs untreated
Protocol: E. coli DH5α bacteria (Invitrogen) transformed, e.g., with either pTrcHis2C-SIRT3(102-399), pTrcHis2C-SIRT3-H248Y(102-399), pTrcHis2C-SIRT5(12-310), pTrcHis2C-SIRT5(39-310) or pTrcHis2C-AceCS2(38-689) were grown to an A600 nm=0.4, and induced with 0.5 mM isopropyl-β-D-thiogalactopyranoside (IPTG) at 25° C. for 16 h. 6×His-tagged proteins were purified under native conditions at 4° C. using Ni-NTA agarose (Qiagen, Valencia, Calif.). […]
The activity of purified AceCS2 was measured as described (Jones & Lipmann, 1955, in Methods in Enzymology (Academic Press, Vol. 1, pp. 585-591; Barak et al., 2004, J Mol Biol 342:383-401). Each reaction (0.5 mL) contained 100 mM hydroxylamine (pre-neutralized with KOH), 50 mM Tris-HCl (pH 8.0), 20 mM potassium acetate, 10 mM MgCl2, 10 mM ATP, 2 mM DTT and 1 mM CoA. All chemicals (Sigma) were of the highest purity available. Reactions were pre-incubated at 35° C. for 5 min before the addition of purified AceCS2 (6 μg). After 30 min of incubation, 0.5 mL stop solution (10% (w/v) FeCl3, 3.3% (w/v) trichloroacetic acid in 2 N HCl) were added and reactions were incubated on ice for 2 min. The samples were centrifuged for 2 min at 16,200×g to remove turbidity and the generated color was measured at 540 nm. […]

[2] = biological target: T1, bacterial sirtuins (Escherichia coli, UniProt P75960); test: Expression of recombinant human AceCS2 in nicotinamide-treated E. coli, acetyl-lysine immunoblot; type: cell-based
T1 construct: endogenous in cells; host or cells: E. coli DH5alpha (Invitrogen)
T1 sequence (P75960 whole entry): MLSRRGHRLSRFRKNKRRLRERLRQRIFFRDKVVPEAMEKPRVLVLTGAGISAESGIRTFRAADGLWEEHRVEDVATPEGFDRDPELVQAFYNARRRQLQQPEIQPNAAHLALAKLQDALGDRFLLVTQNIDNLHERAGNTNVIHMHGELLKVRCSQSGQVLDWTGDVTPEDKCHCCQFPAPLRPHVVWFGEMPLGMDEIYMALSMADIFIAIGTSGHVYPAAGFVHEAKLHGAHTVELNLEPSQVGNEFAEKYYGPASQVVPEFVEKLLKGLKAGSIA
Protocol: E. coli DH5α bacteria (Invitrogen) transformed, e.g., with either pTrcHis2C-SIRT3(102-399), pTrcHis2C-SIRT3-H248Y(102-399), pTrcHis2C-SIRT5(12-310), pTrcHis2C-SIRT5(39-310) or pTrcHis2C-AceCS2(38-689) were grown to an A600 nm=0.4, and induced with 0.5 mM isopropyl-β-D-thiogalactopyranoside (IPTG) at 25° C. for 16 h. 6×His-tagged proteins were purified under native conditions at 4° C. using Ni-NTA agarose (Qiagen, Valencia, Calif.). Purified proteins were dialyzed (e.g., against sirtuin storage buffer […], 4 mM MgCl2, 50 mM NaCl, 0.5 mM DTT, 5% glycerol (v/v) or AceCS2 storage buffer [50 mM Tris-HCl (pH 8.0), 4 mM MgCl2, 10% glycerol (v/v)], adjusted to 0.5 g/L and stored frozen at −80° C. To induce acetylation of recombinant AceCS2, nicotinamide (50 mM) was added during protein expression (16 h, 25° C.).
Immunoblots were developed with enhanced chemiluminescence (Amersham Pharmacia Biosciences) or West SuperSignal reagent (Pierce). Membranes were either nitrocellulose or polyvinylidene fluoride (PVDF) (Immun-Blot; Bio-Rad Laboratories).

## NC(=O)c1cccnc1 [nicotinamide]
[1]
  specific activity of AceCS2 purified from bacteria treated or not with nicotinamide: significantly lower specific activity
[2]; E. coli treated with nicotinamide during expression, AceCS2-K642R
  acetylation of mutant AceCS2 protein carrying an arginine residue in position 642: did not induce acetylation
[2]; wild-type E. coli treated with nicotinamide (50 mM) during protein expression, 16 h, 25° C., AceCS2 wild type
  acetylation of recombinant human AceCS2 (Lys642): hyperacetylation of recombinant human AceCS2; also recorded: significantly increased its levels of acetylation
